Data from patent publication US20110071108A1, “Beta-Cyclodextrin Derivatives as Antibacterial Agents” (Pinnacle Pharmaceuticals, Inc., priority 2005, published 2011).

How the values were obtained:
Assay in all cases: Bacterial panel testing, MIC by broth microdilution
Format in all cases: cell-based
Conditions in all cases: 20-24 hours growth
Bacillus atrophaeus = tested on: Bacillus atrophaeus
Summary of the method: (§1)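 Colonies grown 2-4 h at 37° C in Mueller-Hinton or Brain Heart infusion broth (strain-dependent), adjusted to McFarland standard, then diluted into media. Test compound diluted to 10 μg/ml in DMSO (stock) and twofold serially diluted across columns 2-12 in inoculated media. Incubated 20-24 h; clear wells scored for potency.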

Enterococcus faecium = tested on: Enterococcus faecium
Summary of the method: as §1

Eschericia coli = tested on: Eschericia coli
Summary of the method: as §1

Pseudomonas aeruginosa = tested on: Pseudomonas aeruginosa
Summary of the method: as §1

Salmonella choleraesuis = tested on: Salmonella choleraesuis
Summary of the method: as §1

Staphylococcus aureus = tested on: Staphylococcus aureus
Summary of the method: as §1

Row | SMILES | MIC BA (Bacillus atrophaeus) | MIC EF (Enterococcus faecium) | MIC EC (Eschericia coli) | MIC PA (Pseudomonas aeruginosa) | MIC SC (Salmonella choleraesuis) | MIC SA (Staphylococcus aureus)
1 | CN(C)C[C@H]1O[C@@H]2O[C@H]3[C@H](O)[C@@H](O)[C@@H](O[C@H]4[C@H](O)[C@@H](O)[C@@H](O[C@H]5[C@H](O)[C@@H](O)[C@@H](O[C@H]6[C@H](O)[C@@H](O)[C@@H](O[C@H]7[C@H](O)[C@@H](O)[C@@H](O[C@H]8[C@H](O)[C@@H](O)[C@@H](O[C@H]1[C@H](O)[C@H]2O)O[C@@H]8CN(C)C)O[C@@H]7CN(C)C)O[C@@H]6CN(C)C)O[C@@H]5CN(C)C)O[C@@H]4CN(C)C)O[C@@H]3CN(C)C | <0.2 µg/mL | >200 µg/mL | >200 µg/mL | >200 µg/mL | >200 µg/mL | >200 µg/mL
2 | CC(C)[C@H](N)C(=O)NC[C@H]1O[C@@H]2O[C@H]3[C@H](O)[C@@H](O)[C@@H](O[C@H]4[C@H](O)[C@@H](O)[C@@H](O[C@H]5[C@H](O)[C@@H](O)[C@@H](O[C@H]6[C@H](O)[C@@H](O)[C@@H](O[C@H]7[C@H](O)[C@@H](O)[C@@H](O[C@H]8[C@H](O)[C@@H](O)[C@@H](O[C@H]1[C@H](O)[C@H]2O)O[C@@H]8CNC(=O)[C@@H](N)C(C)C)O[C@@H]7CNC(=O)[C@@H](N)C(C)C)O[C@@H]6CNC(=O)[C@@H](N)C(C)C)O[C@@H]5CNC(=O)[C@@H](N)C(C)C)O[C@@H]4CNC(=O)[C@@H](N)C(C)C)O[C@@H]3CNC(=O)[C@@H](N)C(C)C.Cl.Cl.Cl.Cl.Cl.Cl.Cl | >200 µg/mL | >200 µg/mL | >200 µg/mL | >200 µg/mL | >200 µg/mL | >200 µg/mL
3 | Cl.Cl.Cl.Cl.Cl.Cl.Cl.N[C@@H](CC(=O)O)C(=O)NC[C@H]1O[C@@H]2O[C@H]3[C@H](O)[C@@H](O)[C@@H](O[C@H]4[C@H](O)[C@@H](O)[C@@H](O[C@H]5[C@H](O)[C@@H](O)[C@@H](O[C@H]6[C@H](O)[C@@H](O)[C@@H](O[C@H]7[C@H](O)[C@@H](O)[C@@H](O[C@H]8[C@H](O)[C@@H](O)[C@@H](O[C@H]1[C@H](O)[C@H]2O)O[C@@H]8CNC(=O)[C@@H](N)CC(=O)O)O[C@@H]7CNC(=O)[C@@H](N)CC(=O)O)O[C@@H]6CNC(=O)[C@@H](N)CC(=O)O)O[C@@H]5CNC(=O)[C@@H](N)CC(=O)O)O[C@@H]4CNC(=O)[C@@H](N)CC(=O)O)O[C@@H]3CNC(=O)[C@@H](N)CC(=O)O | >200 µg/mL | >200 µg/mL | >200 µg/mL | >200 µg/mL | >200 µg/mL | >200 µg/mL
4 | Cl.Cl.Cl.Cl.Cl.Cl.Cl.NCCCC(=O)NC[C@H]1O[C@@H]2O[C@H]3[C@H](O)[C@@H](O)[C@@H](O[C@H]4[C@H](O)[C@@H](O)[C@@H](O[C@H]5[C@H](O)[C@@H](O)[C@@H](O[C@H]6[C@H](O)[C@@H](O)[C@@H](O[C@H]7[C@H](O)[C@@H](O)[C@@H](O[C@H]8[C@H](O)[C@@H](O)[C@@H](O[C@H]1[C@H](O)[C@H]2O)O[C@@H]8CNC(=O)CCCN)O[C@@H]7CNC(=O)CCCN)O[C@@H]6CNC(=O)CCCN)O[C@@H]5CNC(=O)CCCN)O[C@@H]4CNC(=O)CCCN)O[C@@H]3CNC(=O)CCCN | >200 µg/mL | >200 µg/mL | >200 µg/mL | >200 µg/mL | >200 µg/mL | >200 µg/mL
5 | Cl.Cl.Cl.Cl.Cl.Cl.Cl.N[C@@H](Cc1ccc(OCc2ccccc2)cc1)C(=O)NC[C@H]1O[C@@H]2O[C@H]3[C@H](O)[C@@H](O)[C@@H](O[C@H]4[C@H](O)[C@@H](O)[C@@H](O[C@H]5[C@H](O)[C@@H](O)[C@@H](O[C@H]6[C@H](O)[C@@H](O)[C@@H](O[C@H]7[C@H](O)[C@@H](O)[C@@H](O[C@H]8[C@H](O)[C@@H](O)[C@@H](O[C@H]1[C@H](O)[C@H]2O)O[C@@H]8CNC(=O)[C@@H](N)Cc1ccc(OCc2ccccc2)cc1)O[C@@H]7CNC(=O)[C@@H](N)Cc1ccc(OCc2ccccc2)cc1)O[C@@H]6CNC(=O)[C@@H](N)Cc1ccc(OCc2ccccc2)cc1)O[C@@H]5CNC(=O)[C@@H](N)Cc1ccc(OCc2ccccc2)cc1)O[C@@H]4CNC(=O)[C@@H](N)Cc1ccc(OCc2ccccc2)cc1)O[C@@H]3CNC(=O)[C@@H](N)Cc1ccc(OCc2ccccc2)cc1 | >200 µg/mL | >200 µg/mL | >200 µg/mL | >200 µg/mL | >200 µg/mL | >200 µg/mL
6 | O=C(O)COC[C@H]1O[C@@H]2O[C@H]3[C@H](O)[C@@H](O)[C@@H](O[C@H]4[C@H](O)[C@@H](O)[C@@H](O[C@H]5[C@H](O)[C@@H](O)[C@@H](O[C@H]6[C@H](O)[C@@H](O)[C@@H](O[C@H]7[C@H](O)[C@@H](O)[C@@H](O[C@H]8[C@H](O)[C@@H](O)[C@@H](O[C@H]1[C@H](O)[C@H]2O)O[C@@H]8COCC(=O)O)O[C@@H]7COCC(=O)O)O[C@@H]6COCC(=O)O)O[C@@H]5COCC(=O)O)O[C@@H]4COCC(=O)O)O[C@@H]3COCC(=O)O | >200 µg/mL | >200 µg/mL | >200 µg/mL | >200 µg/mL | >200 µg/mL | >200 µg/mL
7 | Cc1c(NC[C@H]2O[C@@H]3O[C@H]4[C@H](O)[C@@H](O)[C@@H](O[C@H]5[C@H](O)[C@@H](O)[C@@H](O[C@H]6[C@H](O)[C@@H](O)[C@@H](O[C@H]7[C@H](O)[C@@H](O)[C@@H](O[C@H]8[C@H](O)[C@@H](O)[C@@H](O[C@H]9[C@H](O)[C@@H](O)[C@@H](O[C@H]2[C@H](O)[C@H]3O)O[C@@H]9CNc2c(C)n(C)n(-c3ccccc3)c2=O)O[C@@H]8CNc2c(C)n(C)n(-c3ccccc3)c2=O)O[C@@H]7CNc2c(C)n(C)n(-c3ccccc3)c2=O)O[C@@H]6CNc2c(C)n(C)n(-c3ccccc3)c2=O)O[C@@H]5CNc2c(C)n(C)n(-c3ccccc3)c2=O)O[C@@H]4CNc2c(C)n(C)n(-c3ccccc3)c2=O)c(=O)n(-c2ccccc2)n1C | >200 µg/mL | >200 µg/mL | >200 µg/mL | >200 µg/mL | >200 µg/mL | >200 µg/mL
8 | O=C(C1CCCO1)N1CCN(CC2OC3OC4C(CN5CCN(C(=O)C6CCCO6)CC5)OC(OC5C(CN6CCN(C(=O)C7CCCO7)CC6)OC(OC6C(CN7CCN(C(=O)C8CCCO8)CC7)OC(OC7C(CN8CCN(C(=O)C9CCCO9)CC8)OC(OC8C(CN9CCN(C(=O)C%10CCCO%10)CC9)OC(OC9C(CN%10CCN(C(=O)C%11CCCO%11)CC%10)OC(OC2C(O)C3O)C(O)C9O)C(O)C8O)C(O)C7O)C(O)C6O)C(O)C5O)C(O)C4O)CC1 (stereo not drawn) | >200 µg/mL | >200 µg/mL | >200 µg/mL | >200 µg/mL | >200 µg/mL | >200 µg/mL
9 | OC1C2OC(CNc3ccccc3)C(OC3OC(CNc4ccccc4)C(OC4OC(CNc5ccccc5)C(OC5OC(CNc6ccccc6)C(OC6OC(CNc7ccccc7)C(OC7OC(CNc8ccccc8)C(OC8OC(CNc9ccccc9)C(O2)C(O)C8O)C(O)C7O)C(O)C6O)C(O)C5O)C(O)C4O)C(O)C3O)C1O (stereo not drawn) | >200 µg/mL | >200 µg/mL | >200 µg/mL | >200 µg/mL | >200 µg/mL | >200 µg/mL
10 | CCCCCCCCCCCC[N+]12CC[N+](CC(=O)NCC3OC4OC5C(CNC(=O)C[N+]67CC[N+](CCCCCCCCCCCC)(CC6)CC7)OC(OC6C(CNC(=O)C[N+]78CC[N+](CCCCCCCCCCCC)(CC7)CC8)OC(OC7C(CNC(=O)C[N+]89CC[N+](CCCCCCCCCCCC)(CC8)CC9)OC(OC8C(CNC(=O)C[N+]9%10CC[N+](CCCCCCCCCCCC)(CC9)CC%10)OC(OC9C(CNC(=O)C[N+]%10%11CC[N+](CCCCCCCCCCCC)(CC%10)CC%11)OC(OC%10C(CNC(=O)C[N+]%11%12CC[N+](CCCCCCCCCCCC)(CC%11)CC%12)OC(OC3C(O)C4O)C(O)C%10O)C(O)C9O)C(O)C8O)C(O)C7O)C(O)C6O)C(O)C5O)(CC1)CC2 (stereo not drawn) | >200 µg/mL | >200 µg/mL | >200 µg/mL | >200 µg/mL | >200 µg/mL | >200 µg/mL
11 | OC1C2OC(CN3CCN(c4ccccn4)CC3)C(OC3OC(CN4CCN(c5ccccn5)CC4)C(OC4OC(CN5CCN(c6ccccn6)CC5)C(OC5OC(CN6CCN(c7ccccn7)CC6)C(OC6OC(CN7CCN(c8ccccn8)CC7)C(OC7OC(CN8CCN(c9ccccn9)CC8)C(OC8OC(CN9CCN(c%10ccccn%10)CC9)C(O2)C(O)C8O)C(O)C7O)C(O)C6O)C(O)C5O)C(O)C4O)C(O)C3O)C1O (stereo not drawn) | >200 µg/mL | >200 µg/mL | >200 µg/mL | >200 µg/mL | >200 µg/mL | >200 µg/mL
12 | Cl.Cl.Cl.Cl.Cl.Cl.NCCCSCC1OC2OC3C(CSCCCN)OC(OC4C(CSCCCN)OC(OC5C(CSCCCN)OC(OC6C(CSCCCN)OC(OC7C(CSCCCN)OC(OC1C(O)C2O)C(O)C7O)C(O)C6O)C(O)C5O)C(O)C4O)C(O)C3O (stereo not drawn) | >200 µg/mL | >200 µg/mL | >200 µg/mL | >200 µg/mL | >200 µg/mL | >200 µg/mL
13 | COCCNCC1OC2OC3C(CNCCOC)OC(OC4C(CNCCOC)OC(OC5C(CNCCOC)OC(OC6C(CNCCOC)OC(OC7C(CNCCOC)OC(OC8C(CNCCOC)OC(OC1C(O)C2O)C(O)C8O)C(O)C7O)C(O)C6O)C(O)C5O)C(O)C4O)C(O)C3O (stereo not drawn) | >200 µg/mL | >200 µg/mL | >200 µg/mL | >200 µg/mL | >200 µg/mL | >200 µg/mL
14 | CC(=O)NCC1OC2OC3C(CNC(C)=O)OC(OC4C(CNC(C)=O)OC(OC5C(CNC(C)=O)OC(OC6C(CNC(C)=O)OC(OC7C(CNC(C)=O)OC(OC8C(CNC(C)=O)OC(OC1C(O)C2O)C(O)C8O)C(O)C7O)C(O)C6O)C(O)C5O)C(O)C4O)C(O)C3O (stereo not drawn) | >200 µg/mL | >200 µg/mL | >200 µg/mL | >200 µg/mL | >200 µg/mL | >200 µg/mL
